Reference: ChEMBL document CHEMBL5678807, “A selective jumonji H3K27 demethylase inhibitor modulates the proinflammatory macrophage response” (Nature, 2012)

Key:
[1] = tested on: Macrophage; test: Antiinflammatory activity in human primary macrophages assessed as effect on LPS-induced IL11 gene expression at 30 uM measured after 2 hrs by RT-PCR array (reference value: 6 a.u.); type: functional
[2] = tested on: Macrophage; test: Antiinflammatory activity in human primary macrophages assessed as effect on LPS-induced IFNK gene expression at 30 uM measured after 2 hrs by RT-PCR array (reference value: 724 a.u.); type: functional
[3] = tested on: Macrophage; test: Antiinflammatory activity in human primary macrophages assessed as effect on LPS-induced IL12B gene expression at 30 uM measured after 2 hrs by RT-PCR array (reference value: 17908 a.u.); type: functional
[4] = tested on: Macrophage; test: Antiinflammatory activity in human primary macrophages assessed as effect on LPS-induced TXLNA gene expression at 30 uM measured after 2 hrs by RT-PCR array (reference value: 8115 a.u.); type: functional
[5] = tested on: Macrophage; test: Antiinflammatory activity in human primary macrophages assessed as effect on LPS-induced PDGFA gene expression at 30 uM measured after 2 hrs by RT-PCR array (reference value: 235 a.u.); type: functional
[6] = tested on: Macrophage; test: Antiinflammatory activity in human primary macrophages assessed as effect on LPS-induced GAPDH gene expression at 30 uM measured after 2 hrs by RT-PCR array (reference value: 1352294 a.u.); type: functional
[7] = tested on: Macrophage; test: Antiinflammatory activity in human primary macrophages assessed as effect on LPS-induced BMP6 gene expression at 30 uM measured after 2 hrs by RT-PCR array (reference value: 1526 a.u.); type: functional
[8] = tested on: Macrophage; test: Antiinflammatory activity in human primary macrophages assessed as effect on LPS-induced IL19 gene expression at 30 uM measured after 2 hrs by RT-PCR array (reference value: 13781 a.u.); type: functional
[9] = tested on: Macrophage; test: Antiinflammatory activity in human primary macrophages assessed as effect on LPS-induced IL1A gene expression at 30 uM measured after 2 hrs by RT-PCR array (reference value: 1292761 a.u.); type: functional
[10] = tested on: Macrophage; test: Antiinflammatory activity in human primary macrophages assessed as effect on LPS-induced TNF gene expression at 30 uM measured after 2 hrs by RT-PCR array (reference value: 7222474 a.u.); type: functional
[11] = tested on: Macrophage; test: Antiinflammatory activity in human primary macrophages assessed as effect on LPS-induced BMP2 gene expression at 30 uM measured after 2 hrs by RT-PCR array (reference value: 331 a.u.); type: functional
[12] = tested on: Macrophage; test: Antiinflammatory activity in human primary macrophages assessed as effect on LPS-induced IL24 gene expression at 30 uM measured after 2 hrs by RT-PCR array (reference value: 12164 a.u.); type: functional
[13] = tested on: Macrophage; test: Antiinflammatory activity in human primary macrophages assessed as effect on LPS-induced CSF2 gene expression at 30 uM measured after 2 hrs by RT-PCR array (reference value: 248134 a.u.); type: functional
[14] = tested on: Macrophage; test: Antiinflammatory activity in human primary macrophages assessed as effect on LPS-induced IL16 gene expression at 30 uM measured after 2 hrs by RT-PCR array (reference value: 8635 a.u.); type: functional
[15] = tested on: Macrophage; test: Antiinflammatory activity in human primary macrophages assessed as effect on LPS-induced IL7 gene expression at 30 uM measured after 2 hrs by RT-PCR array (reference value: 60083 a.u.); type: functional
[16] = tested on: Macrophage; test: Antiinflammatory activity in human primary macrophages assessed as effect on LPS-induced IL1B gene expression at 30 uM measured after 2 hrs by RT-PCR array (reference value: 15266918 a.u.); type: functional
[17] = tested on: Macrophage; test: Antiinflammatory activity in human primary macrophages assessed as effect on LPS-induced CD70 gene expression at 30 uM measured after 2 hrs by RT-PCR array (reference value: 2415 a.u.); type: functional
[18] = tested on: Macrophage; test: Antiinflammatory activity in human primary macrophages assessed as effect on LPS-induced IFNB1 gene expression at 30 uM measured after 2 hrs by RT-PCR array (reference value: 1415030 a.u.); type: functional
[19] = tested on: Macrophage; test: Antiinflammatory activity in human primary macrophages assessed as effect on LPS-induced TNFSF13 gene expression at 30 uM measured after 2 hrs by RT-PCR array (reference value: 47108 a.u.); type: functional
[20] = tested on: Macrophage; test: Antiinflammatory activity in human primary macrophages assessed as effect on LPS-induced CSF1 gene expression at 30 uM measured after 2 hrs by RT-PCR array (reference value: 287895 a.u.); type: functional
[21] = biological target: T1, Beta-2 adrenergic receptor (Homo sapiens, UniProt P07550); test: Agonist activity at human beta2 adrenoceptor by TR-FRET assay; type: functional
T1 sequence (P07550 whole entry): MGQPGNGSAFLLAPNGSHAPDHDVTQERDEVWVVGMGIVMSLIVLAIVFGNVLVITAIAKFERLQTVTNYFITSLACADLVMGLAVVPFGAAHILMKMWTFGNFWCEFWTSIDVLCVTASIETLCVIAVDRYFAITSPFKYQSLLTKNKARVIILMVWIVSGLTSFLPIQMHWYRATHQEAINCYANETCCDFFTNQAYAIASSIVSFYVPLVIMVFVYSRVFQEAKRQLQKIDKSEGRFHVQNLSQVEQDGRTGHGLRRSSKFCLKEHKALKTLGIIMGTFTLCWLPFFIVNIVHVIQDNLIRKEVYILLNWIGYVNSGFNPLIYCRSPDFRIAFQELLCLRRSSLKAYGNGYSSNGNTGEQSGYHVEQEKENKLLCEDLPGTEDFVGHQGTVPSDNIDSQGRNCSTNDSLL

[22] = biological target: D(1A) dopamine receptor (Homo sapiens, UniProt P21728); test: Antagonist activity at human dopamine 1 receptor by TR-FRET assay; type: functional
Chain of D(1A) dopamine receptor (P21728 whole entry): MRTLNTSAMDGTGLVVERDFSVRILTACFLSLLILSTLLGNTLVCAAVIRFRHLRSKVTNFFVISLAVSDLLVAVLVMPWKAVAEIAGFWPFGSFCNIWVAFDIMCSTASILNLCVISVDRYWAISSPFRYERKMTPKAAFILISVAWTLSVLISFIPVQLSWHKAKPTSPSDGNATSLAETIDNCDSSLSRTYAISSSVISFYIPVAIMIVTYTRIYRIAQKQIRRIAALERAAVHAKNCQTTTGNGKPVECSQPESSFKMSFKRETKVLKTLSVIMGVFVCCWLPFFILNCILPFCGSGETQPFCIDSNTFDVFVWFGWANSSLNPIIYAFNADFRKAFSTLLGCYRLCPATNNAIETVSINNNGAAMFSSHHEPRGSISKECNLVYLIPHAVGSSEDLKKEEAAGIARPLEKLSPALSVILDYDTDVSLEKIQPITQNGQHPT

[23] = biological target: T1, Beta-2 adrenergic receptor; test: Antagonist activity at human beta2 adrenoceptor by TR-FRET assay; type: functional
[24] = biological target: T2, Muscarinic acetylcholine receptor M1 (Homo sapiens, UniProt P11229); test: Antagonist activity at human CHRM1 by intracellular Ca fluorescence assay; type: functional, cell-based
T2 sequence (P11229 whole entry): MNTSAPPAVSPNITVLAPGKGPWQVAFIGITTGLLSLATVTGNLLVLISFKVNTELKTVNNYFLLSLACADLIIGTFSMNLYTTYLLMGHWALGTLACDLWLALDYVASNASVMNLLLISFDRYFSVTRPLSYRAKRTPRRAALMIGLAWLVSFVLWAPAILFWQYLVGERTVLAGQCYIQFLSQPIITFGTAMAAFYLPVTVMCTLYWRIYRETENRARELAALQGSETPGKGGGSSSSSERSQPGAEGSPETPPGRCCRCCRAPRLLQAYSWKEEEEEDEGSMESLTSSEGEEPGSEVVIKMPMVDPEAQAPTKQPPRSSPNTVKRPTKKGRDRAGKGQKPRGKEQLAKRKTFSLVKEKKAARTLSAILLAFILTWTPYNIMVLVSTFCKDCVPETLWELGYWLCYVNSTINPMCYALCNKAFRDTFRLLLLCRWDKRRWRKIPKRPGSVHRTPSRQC

[25] = biological target: Vasopressin V1a receptor (Homo sapiens, UniProt P37288); test: Antagonist activity at human vasopressin V1a by intracellular Ca luminescence assay; type: functional, cell-based
Chain of Vasopressin V1a receptor (P37288 whole entry): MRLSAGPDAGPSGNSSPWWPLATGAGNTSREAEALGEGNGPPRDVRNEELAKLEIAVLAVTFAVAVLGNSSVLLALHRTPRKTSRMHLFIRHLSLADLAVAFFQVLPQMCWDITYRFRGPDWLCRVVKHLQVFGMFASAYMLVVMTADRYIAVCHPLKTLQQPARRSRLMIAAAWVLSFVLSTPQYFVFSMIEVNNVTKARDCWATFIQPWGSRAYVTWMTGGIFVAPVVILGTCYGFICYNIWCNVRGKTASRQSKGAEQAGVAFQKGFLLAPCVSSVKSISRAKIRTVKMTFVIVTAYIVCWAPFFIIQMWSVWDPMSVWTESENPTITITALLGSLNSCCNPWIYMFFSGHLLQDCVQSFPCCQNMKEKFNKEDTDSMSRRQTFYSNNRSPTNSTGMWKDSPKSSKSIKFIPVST

[26] = biological target: Histone deacetylase 8 (Homo sapiens, UniProt Q9BY41); test: Inhibition of human HDAC8 by FLINT assay
Chain of Histone deacetylase 8 (Q9BY41 whole entry): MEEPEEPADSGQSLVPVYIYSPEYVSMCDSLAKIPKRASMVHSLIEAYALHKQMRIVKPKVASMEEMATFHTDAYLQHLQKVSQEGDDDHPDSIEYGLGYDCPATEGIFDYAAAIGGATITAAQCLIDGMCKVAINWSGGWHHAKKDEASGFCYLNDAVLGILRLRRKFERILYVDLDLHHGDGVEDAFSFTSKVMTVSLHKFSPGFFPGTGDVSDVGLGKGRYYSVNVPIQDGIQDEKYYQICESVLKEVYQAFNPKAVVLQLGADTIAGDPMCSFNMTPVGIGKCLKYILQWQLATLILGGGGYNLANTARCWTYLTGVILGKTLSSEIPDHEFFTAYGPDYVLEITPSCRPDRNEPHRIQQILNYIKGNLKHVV

[27] = biological target: Acetylcholine receptor subunit alpha (Homo sapiens, UniProt P02708); test: Agonist activity at human alpha 1 nAChR by intracellular Ca fluorescence assay; type: cell-based
Chain of Acetylcholine receptor subunit alpha (P02708 whole entry): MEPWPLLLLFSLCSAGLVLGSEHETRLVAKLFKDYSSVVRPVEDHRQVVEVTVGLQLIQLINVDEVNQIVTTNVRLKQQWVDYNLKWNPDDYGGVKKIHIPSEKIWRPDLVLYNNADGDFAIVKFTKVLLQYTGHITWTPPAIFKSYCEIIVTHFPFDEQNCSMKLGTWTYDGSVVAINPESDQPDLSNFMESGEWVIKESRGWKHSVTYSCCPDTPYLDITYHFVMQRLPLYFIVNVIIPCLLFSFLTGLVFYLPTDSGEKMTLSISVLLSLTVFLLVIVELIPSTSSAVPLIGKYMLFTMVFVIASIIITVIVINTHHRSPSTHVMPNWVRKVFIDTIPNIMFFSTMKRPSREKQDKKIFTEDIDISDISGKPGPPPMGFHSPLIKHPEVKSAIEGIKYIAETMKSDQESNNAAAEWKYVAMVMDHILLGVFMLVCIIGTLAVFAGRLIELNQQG

[28] = biological target: Histone deacetylase 4 (Homo sapiens, UniProt P56524); test: Inhibition of human HDAC4 by FLINT assay
Chain of Histone deacetylase 4 (P56524 whole entry): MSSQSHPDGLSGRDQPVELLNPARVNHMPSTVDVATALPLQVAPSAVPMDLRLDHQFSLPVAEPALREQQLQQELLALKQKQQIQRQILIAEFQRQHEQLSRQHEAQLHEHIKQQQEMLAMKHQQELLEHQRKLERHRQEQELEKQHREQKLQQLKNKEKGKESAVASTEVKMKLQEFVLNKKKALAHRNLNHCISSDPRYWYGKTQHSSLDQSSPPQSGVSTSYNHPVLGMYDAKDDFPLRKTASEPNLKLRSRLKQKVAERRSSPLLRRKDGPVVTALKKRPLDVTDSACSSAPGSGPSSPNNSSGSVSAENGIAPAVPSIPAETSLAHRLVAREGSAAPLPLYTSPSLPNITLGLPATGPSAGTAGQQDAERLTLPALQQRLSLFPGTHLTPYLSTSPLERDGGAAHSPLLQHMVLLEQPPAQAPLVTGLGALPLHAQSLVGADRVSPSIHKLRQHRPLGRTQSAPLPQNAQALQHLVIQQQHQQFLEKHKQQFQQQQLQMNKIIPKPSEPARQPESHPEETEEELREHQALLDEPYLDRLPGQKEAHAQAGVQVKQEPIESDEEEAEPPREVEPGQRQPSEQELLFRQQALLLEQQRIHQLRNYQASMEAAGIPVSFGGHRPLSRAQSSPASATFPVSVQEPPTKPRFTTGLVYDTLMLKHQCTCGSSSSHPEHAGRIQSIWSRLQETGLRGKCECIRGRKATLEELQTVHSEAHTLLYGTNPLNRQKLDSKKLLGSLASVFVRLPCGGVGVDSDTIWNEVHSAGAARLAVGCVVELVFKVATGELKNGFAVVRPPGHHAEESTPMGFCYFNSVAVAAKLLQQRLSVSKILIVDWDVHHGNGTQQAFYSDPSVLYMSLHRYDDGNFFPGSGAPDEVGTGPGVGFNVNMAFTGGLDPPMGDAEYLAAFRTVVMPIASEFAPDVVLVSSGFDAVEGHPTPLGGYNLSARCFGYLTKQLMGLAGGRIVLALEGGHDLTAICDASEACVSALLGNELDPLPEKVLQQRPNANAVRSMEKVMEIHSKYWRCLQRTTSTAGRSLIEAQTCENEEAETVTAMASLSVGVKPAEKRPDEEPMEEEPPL

[29] = biological target: Polyamine deacetylase HDAC10 (Homo sapiens, UniProt Q969S8); test: Inhibition of human HDAC10 by FLINT assay
Chain of Polyamine deacetylase HDAC10 (Q969S8 whole entry): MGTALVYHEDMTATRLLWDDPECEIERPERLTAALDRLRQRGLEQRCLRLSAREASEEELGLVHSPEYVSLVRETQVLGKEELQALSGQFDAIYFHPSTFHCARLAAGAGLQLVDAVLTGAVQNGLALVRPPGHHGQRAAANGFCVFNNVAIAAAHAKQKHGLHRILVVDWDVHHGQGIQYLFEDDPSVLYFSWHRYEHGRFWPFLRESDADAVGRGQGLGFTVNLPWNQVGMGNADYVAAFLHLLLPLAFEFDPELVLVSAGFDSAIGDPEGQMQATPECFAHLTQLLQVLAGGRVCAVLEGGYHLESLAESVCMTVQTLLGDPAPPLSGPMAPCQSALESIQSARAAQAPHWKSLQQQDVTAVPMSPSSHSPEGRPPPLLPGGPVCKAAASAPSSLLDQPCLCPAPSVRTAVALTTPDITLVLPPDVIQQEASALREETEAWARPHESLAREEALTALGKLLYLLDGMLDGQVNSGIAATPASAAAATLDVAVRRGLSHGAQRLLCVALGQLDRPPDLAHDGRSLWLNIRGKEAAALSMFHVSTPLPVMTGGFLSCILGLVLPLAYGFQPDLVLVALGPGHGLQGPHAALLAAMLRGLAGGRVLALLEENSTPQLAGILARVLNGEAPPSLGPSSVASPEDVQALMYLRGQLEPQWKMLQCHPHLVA

[30] = biological target: 5-hydroxytryptamine receptor 2A (Homo sapiens, UniProt P28223); test: Agonist activity at human 5-HT2A by intracellular Ca luminescence assay; type: functional, cell-based
Chain of 5-hydroxytryptamine receptor 2A (P28223 whole entry): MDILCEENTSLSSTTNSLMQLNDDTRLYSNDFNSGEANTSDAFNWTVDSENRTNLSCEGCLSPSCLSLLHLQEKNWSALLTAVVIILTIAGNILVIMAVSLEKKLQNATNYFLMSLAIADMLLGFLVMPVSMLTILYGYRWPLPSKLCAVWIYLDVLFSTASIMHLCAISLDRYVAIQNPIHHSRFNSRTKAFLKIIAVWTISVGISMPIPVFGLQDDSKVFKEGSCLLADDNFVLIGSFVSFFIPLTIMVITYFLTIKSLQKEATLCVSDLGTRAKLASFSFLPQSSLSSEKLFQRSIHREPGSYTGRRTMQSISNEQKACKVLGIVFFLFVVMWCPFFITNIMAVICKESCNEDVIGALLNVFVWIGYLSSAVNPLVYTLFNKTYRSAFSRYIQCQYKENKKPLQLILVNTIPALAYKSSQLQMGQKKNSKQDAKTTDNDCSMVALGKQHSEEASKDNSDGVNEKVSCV

[31] = biological target: Histone deacetylase 2 (Homo sapiens, UniProt Q92769); test: Inhibition of human HDAC2 by FLINT assay
Chain of Histone deacetylase 2 (Q92769 whole entry): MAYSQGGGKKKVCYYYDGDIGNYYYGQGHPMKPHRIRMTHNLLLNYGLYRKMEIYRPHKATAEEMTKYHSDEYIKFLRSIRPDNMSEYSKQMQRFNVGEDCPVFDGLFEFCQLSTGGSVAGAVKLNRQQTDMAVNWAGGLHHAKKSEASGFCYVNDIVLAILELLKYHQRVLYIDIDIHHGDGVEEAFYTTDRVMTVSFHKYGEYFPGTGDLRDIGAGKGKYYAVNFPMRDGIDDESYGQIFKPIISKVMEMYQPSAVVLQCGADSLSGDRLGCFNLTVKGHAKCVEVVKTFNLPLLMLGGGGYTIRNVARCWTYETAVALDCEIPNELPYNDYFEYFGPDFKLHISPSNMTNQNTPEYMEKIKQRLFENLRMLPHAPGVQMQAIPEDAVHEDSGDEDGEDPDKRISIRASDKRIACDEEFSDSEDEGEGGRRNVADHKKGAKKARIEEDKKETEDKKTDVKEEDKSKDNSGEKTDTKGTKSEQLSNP

CCOC(=O)CCNc1cc(N2CCc3ccccc3CC2)nc(-c2ccccn2)n1
Activity [1]: 403 a.u. | Activity [2]: 3510 a.u. | Activity [3]: 3068 a.u. | Activity [4]: 5959 a.u. | Activity [5]: 392 a.u. | Activity [6]: 1352294 a.u. | Activity [7]: 293 a.u. | Activity [8]: 1216 a.u. | Activity [9]: 170309 a.u. | Activity [10]: 1593909 a.u. | Activity [11]: 3 a.u. | Activity [12]: 11754 a.u. | Activity [13]: 10602 a.u. | Activity [14]: 6284 a.u. | Activity [15]: 4135 a.u. | Activity [16]: 3032303 a.u. | Activity [17]: 334 a.u. | Activity [18]: 153760 a.u. | Activity [19]: 43866 a.u. | Activity [20]: 140386 a.u.

CCOC(=O)CCNc1cc(N2CCc3ccccc3CC2)nc(-c2cccnc2)n1
Activity [1]: 32 a.u. | Activity [2]: 339 a.u. | Activity [3]: 17395 a.u. | Activity [4]: 6886 a.u. | Activity [5]: 239 a.u. | Activity [6]: 1352294 a.u. | Activity [7]: 1399 a.u. | Activity [8]: 1914 a.u. | Activity [9]: 815450 a.u. | Activity [10]: 5261995 a.u. | Activity [11]: 347 a.u. | Activity [12]: 10100 a.u. | Activity [13]: 67356 a.u. | Activity [14]: 4600 a.u. | Activity [15]: 24543 a.u. | Activity [16]: 10300355 a.u. | Activity [17]: 1003 a.u. | Activity [18]: 1501879 a.u. | Activity [19]: 39565 a.u. | Activity [20]: 211785 a.u.

O=C(O)CCNc1cc(N2CCc3ccccc3CC2)nc(-c2ccccn2)n1
XC50 [21]: > 32 µM | XC50 [22]: > 32 µM | XC50 [23]: > 32 µM | XC50 [24]: > 16 µM | XC50 [25]: > 50 µM | XC50 [26]: > 300 µM | XC50 [27]: > 50 µM | XC50 [28]: > 300 µM | XC50 [29]: > 300 µM | XC50 [30]: > 40 µM | XC50 [31]: > 300 µM

O=C(O)CCNc1cc(N2CCc3ccccc3CC2)nc(-c2cccnc2)n1
XC50 [21]: > 32 µM | XC50 [22]: > 32 µM | XC50 [23]: > 32 µM | XC50 [24]: > 16 µM | XC50 [25]: 4.9 µM | XC50 [26]: > 300 µM | XC50 [27]: > 50 µM | XC50 [28]: > 300 µM | XC50 [29]: > 300 µM | XC50 [30]: > 40 µM | XC50 [31]: > 300 µM
